In US20220288051A1, “METHODS FOR TREATING CANCER USING SERIAL ADMINISTRATION OF E3 UBIQUITIN LIGASE DEGRADERS” (Dana-Farber Cancer Institute, Inc., priority 2019, published 2022):
Entries after “also recorded” stand apart in the source; their conditions may differ.

Tests used:
[1] = system: CDK9; assay: Immunoblotting of degronimid-treated MM.1S cells: CDK9; type: cell-based, human; conditions: 0.01-1 μM, 4 h
Description: (§1) MM.1S cells were seeded in 6-well plates at 3×10^6 cells/well (˜24 h prior to addition of drug). […] Cell pellets were thawed on ice, lysed using RIPA buffer (ThermoFisher) with protease/phosphatase inhibitor cocktail (Cell Signal Technology, Danvers, Mass.) by incubating on ice 30 min. The lysates were clarified by spinning at 10,000 g for 10 min at 4° C. and the concentration of the lysate was determined using BCA protocol (ThermoFisher). Samples were prepared for Western blot using LDS sample buffer (NuPage, Invitrogen, Carlsbad, Calif., USA) with sample reducing agent (NuPage, Invitrogen) and heated to 95° C. for 5 min. Samples were loaded (20 ug/sample) into Tris-acetate or Bis-Tris gels (NuPage, Invitrogen) and run as per kit instructions using appropriate running buffers. Gels were transferred as described (Matthews et al., 2015) onto PVDF membrane using SDS-based transfer buffer (NuPage, Invitrogen). Membranes were blocked (5% skim milk; or 5% bovine serum albumin in TBS-T) for at least 30 min then probed with primary antibodies overnight (4° C.). […] Each protein of interest (BRD2, BRD3, BRD4, c-myc and CDK9) was assessed in a separate gel and corresponding membrane (which was simultaneously incubated with antibodies for both the target protein of interest and GAPDH, to provide a loading control within the same blot). […]

[2] = system: MM cells cultured in the presence of bone-marrow stromal cells; assay: CS-BLI viability in co-culture with bone marrow stromal cells; type: cell-based, human; conditions: co-culture vs MM cells alone
Description: (§2) Cell viability and growth of human MM cell lines were assessed using CellTitre-Glo (CTG) assay (Promega, Madison, Wis.) per kit instructions, or CS-BLI as described (Delmore et al., 2011). Briefly, cells were seeded (5×10^3 cells/well) into 96- or 384-well opaque plates, in supplemented media (40 or 50 uL) and incubated for 24 h prior to addition of drug. For co-culture experiments, HS27A cells were pre-seeded (5×10^3 cells/well) into each well in media prior (24 h) to the addition of MM cells. At each time point (24 h, 48 h, and/or 72 h) CTG reagent (10% volume) was added to each well, and plates were read using a microplate reader (BioTek Synergy 2, BioTek, Winooski, Va.).

[3] = biological target: T1, BRD2 (Homo sapiens, UniProt P25440); assay: Immunoblotting of degronimid-treated MM.1S cells: BRD2; type: cell-based; conditions: 0.01-1 μM, 4 h
T1 construct: endogenous in cells; host or cells: MM.1S
T1 sequence (P25440 whole entry): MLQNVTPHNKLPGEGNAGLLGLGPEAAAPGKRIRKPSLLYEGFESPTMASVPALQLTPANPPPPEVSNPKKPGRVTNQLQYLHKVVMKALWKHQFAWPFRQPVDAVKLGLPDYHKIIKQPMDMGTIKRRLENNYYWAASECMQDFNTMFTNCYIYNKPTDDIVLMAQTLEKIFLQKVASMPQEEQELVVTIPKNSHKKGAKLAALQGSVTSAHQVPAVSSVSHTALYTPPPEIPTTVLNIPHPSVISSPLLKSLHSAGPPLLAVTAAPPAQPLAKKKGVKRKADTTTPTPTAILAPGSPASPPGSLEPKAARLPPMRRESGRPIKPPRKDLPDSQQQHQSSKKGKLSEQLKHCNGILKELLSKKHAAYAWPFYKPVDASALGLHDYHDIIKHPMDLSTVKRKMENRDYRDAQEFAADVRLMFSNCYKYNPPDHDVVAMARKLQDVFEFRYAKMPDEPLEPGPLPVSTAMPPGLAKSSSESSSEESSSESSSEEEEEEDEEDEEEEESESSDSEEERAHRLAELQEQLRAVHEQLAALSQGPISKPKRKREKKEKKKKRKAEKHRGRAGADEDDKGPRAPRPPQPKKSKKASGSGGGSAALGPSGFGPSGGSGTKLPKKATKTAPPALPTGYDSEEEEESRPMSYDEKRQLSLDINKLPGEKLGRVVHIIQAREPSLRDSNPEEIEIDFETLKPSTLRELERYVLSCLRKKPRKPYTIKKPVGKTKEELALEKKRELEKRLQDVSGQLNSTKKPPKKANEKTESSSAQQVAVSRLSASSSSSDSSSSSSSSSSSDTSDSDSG
Description: as §1

[4] = system: human MM.1S cells; assay: Xenograft model of diffuse MM lesions; type: in vivo, NSG mice; conditions: 20 mg/kg, QD, 12 days
Description: (§3) ii. Xenograft model of diffuse MM lesions: Luciferase-positive MM.1S cells (1×106 Luc-GFP-MM.1S) were injected via the tail vein (IV) into NSG mice. […] BLI was undertaken weekly and mice were euthanized when moribund or upon signs of hind-limb paralysis.

[5] = biological target: T2, BRD3 (Homo sapiens, UniProt Q15059); assay: Immunoblotting of degronimid-treated MM.1S cells: BRD3; type: cell-based; conditions: 0.01-1 μM, 4 h
T2 construct: endogenous in cells; host or cells: MM.1S
T2 sequence (Q15059 whole entry): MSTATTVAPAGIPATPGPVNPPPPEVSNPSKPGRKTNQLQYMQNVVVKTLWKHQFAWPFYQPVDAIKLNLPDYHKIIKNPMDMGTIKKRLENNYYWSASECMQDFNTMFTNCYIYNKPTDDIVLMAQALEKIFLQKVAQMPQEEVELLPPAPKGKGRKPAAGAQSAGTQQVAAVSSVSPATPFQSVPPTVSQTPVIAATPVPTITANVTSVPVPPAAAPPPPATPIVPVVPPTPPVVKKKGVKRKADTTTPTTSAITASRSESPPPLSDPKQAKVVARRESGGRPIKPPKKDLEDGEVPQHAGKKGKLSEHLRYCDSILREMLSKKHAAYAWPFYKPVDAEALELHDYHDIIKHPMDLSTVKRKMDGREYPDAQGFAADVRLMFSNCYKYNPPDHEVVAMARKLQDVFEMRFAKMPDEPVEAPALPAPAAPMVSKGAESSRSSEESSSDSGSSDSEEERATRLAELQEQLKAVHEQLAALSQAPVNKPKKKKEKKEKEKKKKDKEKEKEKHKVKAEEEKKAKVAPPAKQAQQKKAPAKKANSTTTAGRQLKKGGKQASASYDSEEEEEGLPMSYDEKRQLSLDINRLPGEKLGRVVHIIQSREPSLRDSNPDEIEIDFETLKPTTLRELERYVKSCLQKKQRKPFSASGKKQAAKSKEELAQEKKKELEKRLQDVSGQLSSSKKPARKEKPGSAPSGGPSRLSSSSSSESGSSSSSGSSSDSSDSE
Description: as §1

[6] = Tolerability of dBET6 treatment in mice; type: in vivo
Description: (§4) i. Subcutaneous MM xenograft model: Luciferase-positive MM.1S cells (10×106 Luc-GFP-MM.1S in matrigel) were transplanted into the right flank of NSG mice (100 μL). […] Treatments were carried out daily for 8 days and tumor size assessed daily using calipers. Mice were culled when tumors reached 2000 mm3 or when moribund.
as §3

[7] = system: c-Myc; assay: Immunoblotting of degronimid-treated MM.1S cells: c-Myc; type: cell-based, human; conditions: 0.01-1 μM, 4 h
Description: as §1

[8] = system: MM.1S cells; assay: Reverse phase protein array (RPPA) of treated MM.1S cells; type: cell-based, human
Description: MM.1S cells were seeded in 6-well plates (2×10^6/well) and cultured overnight prior to treatment. […] Lysates of these protein samples were processed by the Functional Proteomics RPPA Core Facility of the MD Anderson Cancer Center (Houston, Tex.), based on protocols and procedures outlined in the website of the facility (mdanderson.org/research/research-resources/core-facilities/functional-proteomicsrppa-core/rppa-process.html) and similarly to prior reports (Li et al., 2017). We mapped protein antibody labels to gene symbols available from Antibody Information and Protocols at MDACC (mdanderson.org/content/dam/mdanderson/documents/corefacilities/Functional%20Proteomics %20RPPA%20Core%20Facility/RPPA_Standard%20Ab%20List_Updated.xlsx). For data preprocessing, results from replicates of the same experimental run were averaged for each protein. The resulting matrix of RPPA data was further processed to generate log-transformed linear normalized data, linear normalized, and normalized median centered data. The differential protein expression analysis for dBET6- or JQ1-treated samples vs. controls were performed using the limma moderated t-statistic (Ritchie et al., 2015).

[9] = system: MM.1S cells; assay: RNA-sequencing of treated MM.1S cells; type: cell-based, human
[10] = system: MM.1S cells; assay: CTG viability of CRISPR-edited MM.1S pools tolerant to bortezomib or JQ1; type: cell-based, human; conditions: vs treatment-naive cells with the same sgRNA library
Description: as §2
iii. […] Following treatments, all cells were serially cultured without drug and allowed to regrow for as long as required to enable reseeding (60×10^6 cells per flask, 100 mL) and retreatment with individual drugs while maintaining ˜1000× coverage throughout. Concomitant with retreatment, remaining cells were frozen (−80° C.; 20% FBS/DMSO) for later analysis or assessed for drug resistance/sensitivity using CTG assays. Between treatments, and in order to maintain the health of cultures, dead cells were periodically removed using Ficoll centrifugation (1,500 rpm for 10-20 min). For all CRISPR drug treatment experiments, aliquots of MM.1S-Cas9+ cells transduced with the GeCKO(Sanjana et al., 2014; Shalem et al., 2014) or Brunello (Doench et al., 2016) sgRNA libraries were frozen immediately prior to experimentation to determine the baseline distribution of sgRNAs in the cell population.

[11] = system: human MM.1S cells; assay: Subcutaneous MM xenograft model; type: in vivo, NSG mice
Description: as §4

[12] = dBET6 vs JQ1-treated MM.1S cells

Row | Compound | CDK9 protein levels [1] | change in responsiveness in the presence of bone-marrow stromal cells [2] | BRD2 protein levels [3] | overall survival [4] | tumor burden measured by BLI vs vehicle [4] | BRD3 protein levels [5] | tolerability ([6]; doses and schedules reported) | efficacy or tolerability of alternative regimens ([6]; pilot experiments, lower or higher dose intensity (data not shown)) | c-Myc protein levels [7] | protein changes at 4 hrs ([8]; MM.1S, dBET6 0.1 μM, JQ1 0.5 μM, 4 hrs) | RPPA expression of pro-survival and pro-apoptotic proteins ([8]; MM.1S, dBET6 0.1 μM, 4 h and 18 h) | protein changes at later time-points ([8]; MM.1S, dBET6 0.1 μM, later time-points) | suppression of c-MYC at protein level [8, 12] | transcriptional profile (RNA-Seq), down-regulated transcripts ([9]; dBET6 0.1 or 0.5 μM vs JQ1 0.5 μM, 4 h) | suppression of c-MYC at transcript level [9, 12] | dBET6 sensitivity of pools tolerant to bortezomib or JQ1 [10] | rate of tumor growth increase ([11]; 30 mg/kg, QD, 8d, IP) | increase in overall survival ([11]; 30 mg/kg, QD, 8d, p<0.05) [days] | survival ([11]; subcutaneous MM xenografts) | tumor burden vs vehicle ([11]; subcutaneous MM.1S xenograft)
1 | CC(C)(C)c1cnc(CSc2cnc(NC(=O)C3CCN(CC(=O)NCCOCCOCCOCCNc4cccc5c4C(=O)N(C4CCC(=O)NC4=O)C5=O)CC3)s2)o1 (centres unmarked) [Thal-SNS-032] | causes degradation of CDK9 | – | – | – | – | – | – | – | – | – | – | – | – | – | – | – | – | – | – | –
2 | Cc1sc2c(c1C)C(c1ccc(Cl)cc1)=N[C@@H](CC(=O)NCCCCCCCCNC(=O)COc1cccc3c1C(=O)N(C1CCC(=O)NC1=O)C3=O)c1nnc(C)n1-2 (some centres unmarked) [dBET6] | – | No major changes in dBET6 responsiveness | rapid and robust depletion | only minimal overall survival advantage | significantly lower tumor burden | rapid and robust depletion | Mice tolerated dBET6 treatment | less efficacy or tolerability, respectively | rapid and robust depletion | causes downregulation of Mcl-1, Cyclin B1 (not shown), and BRD4 | reduce the expression of key pro-survival proteins, such as MCL-1, c-MYC, and pS6, while leading to the upregulation of cell cycle inhibitor, p21, and cleavage of executioner caspases 3 and 7 | suppression of Ser240/Ser244 S6 phosphorylation; induction of p21, and increase in cleaved caspase3/7 | more pronounced suppression of c-MYC | down-regulation of a larger group of transcripts | more pronounced suppression of c-MYC | do not exhibit resistance to dBET6; also recorded: equal to or greater than treatment-naive cells | significantly suppressed the rate of tumor growth increase | 10 | prolongation of survival | significantly lower tumor burden
